Results: US20120190690A1, “E[…] THE TREATMENT OF WEIGHT DISORDERS” (MERZ PHARMA GmbH & CO. KGaA, priority 2009, published 2012)
“Also recorded” adds a separate entry of the source.

Key:
[1] = test system: 6-OHDA-lesioned rat model of Parkinson's disease; experiment: L-DOPA induced dyskinesia (AIM scores) in unilaterally 6-OHDA-lesioned rats; format: in vivo; details: eltoprazine hydrochloride 0.08, 0.3, 1.25 and 5 mg/kg s.c. 30 min before test; after 21 days L-DOPA 6 mg/kg + benserazide 15 mg/kg i.p.; FIG. 2
Experimental: (§1) Male Sprague Dawley rats (Elevage Janvier, Le Genest Saint Isle, France) weighing between 220 and 250 g at the beginning of the study are used in these experiments. They are housed under a 12 h light/dark cycle with free access to standard pelleted food and tap water. Animal treatment and experimental procedures are approved by local ethical committees (Regierungspräsidium Darmstadt; Germany).
(§2) Dopamine-denervating lesions are performed on rats anaesthetized with a 5:1 mixture of ketamine and xylazine (1 ml/kg, i.p.). […] The animals' turning behaviour is recorded in an automated rotometer (TSE Rotameter System, TSE-Systems GmbH, Bad Homburg, Germany) over a 90 min period after the intraperitoneal (i.p.) injection of 2.5 mg/kg dexamphetamine sulphate dissolved in saline. […]
In order to evaluate the severity of LID, AIMs are recorded every second day as described by Cenci et al. (1998). […] Each rat is scored on a severity scale from 0 to 4 based on its frequency and persistence (1=occasional; 2=frequent; 3=continuous but interrupted by sensory distraction; 4=continuous, severe and not interrupted by sensory distraction). […]

[2] = Plasma levels in the rat weight study; format: in vivo; details: N=8
Experimental: (§3) Eltoprazine hydrochloride was dissolved in sterile water. Animals were treated for 2 weeks using Alzet osmotic pumps (2ML2) implanted under the skin on the back delivering constantly eltoprazine solution or using b.i.d. s.c. Treatment. During the treatment, the rats were kept in single cages.
(§4) Group 1: vehicle (osmotic pump; saline) Group 2: eltoprazine 8 mg/kg/day (osmotic pump; in distilled water) Group 3: vehicle (2 daily injections—9 am & 3 pm—s.c.; in distilled water) Group 4: eltoprazine 1 mg/kg (2 daily injections—9 am & 3 pm—s.c.; in distilled water)

[3] = test system: Sprague-Dawley rats; experiment: Effect of eltoprazine on weight gain and food intake of rats; format: in vivo, rat; details: vs vehicle
Experimental: Experimentally naive adult male Sprague-Dawley rats (250-300 g; Janvier, France) were housed in groups of four per cage. Colony room temperature and humidity were maintained respectively at 20±1° C. and 60±3%. Food and water were available ad libitum and the animals were kept under an alternating 12 h/12 h day-night cycle (lights on at 07.00) for at least 6 days before the experiments were started. All experiments were conducted during the light period of the day-night cycle.
as §3, §4
Groups 3 and 4 were NOT injected at the weekend, and the weight and food intake were not recorded at the weekend.
Weight of animals and food intake were measured daily for two weeks (with exception of weekends).

[4] = test system: patients; details: clinical trials in aggressive behaviour (de Koning et al. 1994); cited from earlier work
[5] = test system: 5-HT2c (initially designated 5-HT1c); details: Schipper et al. 1990; cited from earlier work
[6] = test system: 5-HT1a receptor; details: Schipper et al. 1990; cited from earlier work
[7] = test system: 5-HT1b receptor; details: Schipper et al. 1990; cited from earlier work
[8] = biological target: T1, human serotonin 5-HT1a receptor (Homo sapiens, UniProt P08908); experiment: GTPγS assay, recombinant CHO-K1 membranes, agonist testing; format: biochemical; details: human recombinant cell line; FIG. 1
T1 construct: expressed in transfected cells; host or cells: CHO-K1
T1 sequence (P08908 1-422): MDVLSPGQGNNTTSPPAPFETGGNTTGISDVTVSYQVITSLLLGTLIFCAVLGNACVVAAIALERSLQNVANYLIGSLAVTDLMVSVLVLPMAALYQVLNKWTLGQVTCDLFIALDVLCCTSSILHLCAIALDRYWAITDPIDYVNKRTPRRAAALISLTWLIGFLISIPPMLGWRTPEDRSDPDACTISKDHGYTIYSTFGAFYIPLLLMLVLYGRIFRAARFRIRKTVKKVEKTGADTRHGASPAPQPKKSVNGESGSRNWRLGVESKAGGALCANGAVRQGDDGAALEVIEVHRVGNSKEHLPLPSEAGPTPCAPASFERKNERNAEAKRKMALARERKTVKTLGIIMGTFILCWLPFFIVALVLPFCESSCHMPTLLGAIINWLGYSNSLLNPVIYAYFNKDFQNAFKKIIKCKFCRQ
Experimental: (§5) Eltoprazine was tested for activity on the human serotonin 5-HT1a and 5-HT1b receptors using a GTPγS assay. Recombinant membranes obtained from CHO-K1 cells expressing either the 5-HT1a or 5-HT1b receptors were mixed with GDP (volume:volume) and incubated for at least 15 min on ice. In parallel, GTPγ[35S] was mixed with the beads (volume:volume) just before starting the reaction. The following reagents were successively added in the wells of an Optiplate (Perkin Elmer): 50 μl of test compound, 20 μl of the membranes:GDP mix, 10 μl of assay buffer (for agonist testing) and 20 μl of the GTPγ[35S]:beads mix. The plates were covered with a top seal, shaken on an orbital shaker for 2 min, and then incubated for 1 h at room temperature. Then the plates were centrifuged for 10 min at 2000 rpm, incubated at room temperature 1 h and counted for 1 min/well with a PerkinElmer TopCount reader.

[9] = biological target: T2, human serotonin 5-HT1b receptor (Homo sapiens, UniProt P28222); experiment: as above; format: biochemical; details: human recombinant cell line; FIG. 1
T2 construct: expressed in transfected cells; host or cells: CHO-K1
T2 sequence (P28222 whole entry): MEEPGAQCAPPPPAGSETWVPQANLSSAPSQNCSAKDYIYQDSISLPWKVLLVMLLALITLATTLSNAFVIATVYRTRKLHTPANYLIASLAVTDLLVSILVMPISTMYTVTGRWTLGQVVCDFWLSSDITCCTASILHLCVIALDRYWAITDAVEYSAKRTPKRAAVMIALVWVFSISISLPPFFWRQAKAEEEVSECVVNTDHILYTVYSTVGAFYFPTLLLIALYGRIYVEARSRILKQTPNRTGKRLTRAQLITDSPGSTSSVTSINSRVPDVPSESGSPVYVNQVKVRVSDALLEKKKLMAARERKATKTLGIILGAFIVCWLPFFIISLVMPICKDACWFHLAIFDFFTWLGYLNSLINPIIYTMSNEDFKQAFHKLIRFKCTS
Experimental: as §5

[10] = test system: 6-OHDA-lesioned rat model of Parkinson's disease; experiment: Turning behaviour induced by high dose of L-DOPA in 6-OHDA-lesioned rats; format: in vivo; details: eltoprazine 0.3, 1.25 and 5 mg/kg 30 min before test; 180 min rotometer; FIG. 3
Experimental: as §1, §2
In order to evaluate the effect of eltoprazine on parkinsonian symptoms and its interaction with L-DOPA, rotational behaviour is evaluated. The numbers of ipsilateral and contralateral turns are recorded in an automated rotometer (TSE Rotameter System, TSE-Systems GmbH, Bad Homburg, Germany) over a period of 180 min. […]

[11] = biological target: T3, 5-HT2c non-edited (ne) recombinant receptor (Homo sapiens, UniProt P28335); experiment: Aequorin cell line functional assay, agonist testing; format: cell-based; details: FIG. 1
T3 construct: expressed in transfected cells
T3 sequence (P28335 33-458): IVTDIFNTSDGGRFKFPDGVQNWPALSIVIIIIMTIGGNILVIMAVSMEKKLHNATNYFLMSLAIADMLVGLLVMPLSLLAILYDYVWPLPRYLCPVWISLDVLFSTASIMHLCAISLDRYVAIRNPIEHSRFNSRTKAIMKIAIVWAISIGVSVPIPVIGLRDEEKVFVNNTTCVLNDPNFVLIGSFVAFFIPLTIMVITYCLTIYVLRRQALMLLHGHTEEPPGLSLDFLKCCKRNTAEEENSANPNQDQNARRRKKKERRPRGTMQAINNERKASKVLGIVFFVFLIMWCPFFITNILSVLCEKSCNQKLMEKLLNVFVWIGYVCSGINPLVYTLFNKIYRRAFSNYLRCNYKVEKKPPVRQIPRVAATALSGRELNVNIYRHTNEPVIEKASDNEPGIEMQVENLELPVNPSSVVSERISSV
Experimental: (§6) Aequorin cell lines expressing the 5-HT2a, 5-HT2b and 5-HT2c non-edited (ne) recombinant receptors were used to evaluate the functional activity of eltoprazine. Aequorin cells grown 18 h prior to the test in media without antibiotics were detached by gentle flushing with PBS-EDTA (5 mM EDTA), recovered by centrifugation and resuspended in “assay buffer” (DMEM/HAM's F12 with HEPES+0.1% BSA protease free). Cells were incubated at room temperature for at least 4 h with Coelenterazine h (Molecular Probes). The reference agonist used were 5-HT and α-methyl-5-HT. For agonist testing, 50 μl of cell suspension were injected on 50 μl of test compound or reference agonist plated in a 96-well plate. The resulting emission of light was recorded using the Hamamatsu Functional Drug Screening System 6000 (FDSS 6000).

[12] = biological target: T4, 5-HT2a recombinant receptor (Homo sapiens, UniProt P28223); experiment: as above; format: cell-based; details: FIG. 1
T4 construct: expressed in transfected cells
T4 sequence (P28223 whole entry): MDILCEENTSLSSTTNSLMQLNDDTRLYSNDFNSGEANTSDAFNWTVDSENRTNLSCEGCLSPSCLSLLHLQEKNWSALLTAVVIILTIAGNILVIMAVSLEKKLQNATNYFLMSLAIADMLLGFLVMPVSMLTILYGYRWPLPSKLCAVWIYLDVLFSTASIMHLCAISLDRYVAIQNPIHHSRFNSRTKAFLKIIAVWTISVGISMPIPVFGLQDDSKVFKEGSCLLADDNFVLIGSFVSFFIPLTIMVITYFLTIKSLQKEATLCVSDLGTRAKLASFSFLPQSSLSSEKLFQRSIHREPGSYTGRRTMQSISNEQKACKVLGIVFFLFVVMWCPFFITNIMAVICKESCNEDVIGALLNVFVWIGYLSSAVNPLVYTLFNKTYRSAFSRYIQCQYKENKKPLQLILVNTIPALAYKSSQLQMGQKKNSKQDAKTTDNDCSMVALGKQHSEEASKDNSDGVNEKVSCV
Experimental: as §6

c1cc2c(c(N3CCNCC3)c1)OCCO2 [eltoprazine, 1-(2,3-dihydro-1,4-benzodioxin-8-yl)piperazine]
effect on AIM scores [1]: significantly reverses, in a dose-dependent manner
plasma levels ([2]; 1 mg/kg s.c. b.i.d. injections): approx. 55 ng/ml
plasma levels (range) ([2]; 1 mg/kg s.c. b.i.d. injections): 48 to 65 ng/mL
plasma levels ([2]; osmotic minipump 8 mg/kg/day): approx. 110 ng/ml
plasma levels (range) ([2]; osmotic minipump 8 mg/kg/day): 86 to 143 ng/mL
weight gain ([3]; 1 mg/kg s.c. b.i.d. injections, 2 weeks (not at weekends), FIG. 5A): delay in weight gain; also recorded: significant effect of treatment
food intake ([3]; 1 mg/kg s.c. b.i.d. injections, 2 weeks (not at weekends), FIG. 5B): reduced food intake; also recorded: significant effect of treatment
weight gain ([3]; osmotic minipump 8 mg/kg/day, 2 weeks, FIG. 4A): delay in weight gain; also recorded: significant effect of treatment
food intake ([3]; osmotic minipump 8 mg/kg/day, 2 weeks, FIG. 4B): reduced food intake; also recorded: significant effect of treatment
clinical safety [4]: clinically safe
effect on 5-HT2c [5]: antagonistic
pharmacological action on 5-HT1a receptor [6]: agonistic effect
pharmacological action on 5-HT1b receptor [7]: agonistic effect
functional activity at 5-HT1a receptor [8]: partial agonistic action
functional activity at 5-HT1b receptor [9]: partial agonistic action
effect on turning behaviour induced by L-DOPA (antiparkinsonian effect of L-DOPA) [10]: does not interfere with the antiparkinsonian effect of L-DOPA
functional activity at 5-HT2c receptor [11]: full agonist
functional activity at 5-HT2a receptor [12]: full agonist
